The target of series [1] is T1, AChE from Electrophorus electricus (type VI-S) (Electrophorus electricus, UniProt O42275).
T1 construct: purchased type VI-S
The series is described as follows: biochemical. The following applies: Ellman's method, pH 7.4, acetylthiocholine 1 mM; mean ± SD; read-out: Anti-AChE IC50. How it is done: It is well-known that the cholinergic system plays a vital role in the regulation of the learning, cognitive and memory processes. […] In the present study, all acridones were tested for their inhibition of AChE according to the method of Ellman and co-workers, using tacrine as a reference compound. […] Acridone consists of two benzene rings fused together with a keto group and a nitrogen atom at positions 9 and 10, respectively, resulting in a planar structure.
AChE activity was evaluated and modified from Ellman’s method. All test compounds were prepared as stock solution in ethanol. […] Experiments were performed in triplicates.

The target in a further series is Aβ1-42 (Homo sapiens, UniProt P05067). Description: Inhibition of self-mediated Aβ1-42 aggregation (thioflavin T assay).
Sequence of Aβ1-42 (P05067 672-713 limits assumed): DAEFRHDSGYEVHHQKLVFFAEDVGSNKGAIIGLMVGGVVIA
The nature of series [2]: ABTS radical scavenging assay. The following applies: read-out: ABTS Scavenging Activity IC50; mean ± SD, triplicates; 10 to 100 µM tested.
Procedure: In the present study, the antioxidant activity of the 10 acridones was evaluated by ABTS radical scavenging assay and trolox was used as the reference compound.
The antioxidant activity was determined by the decolonization of the radical cation of 2,2′-azinobis-(3-ethylbenzothiazoline-6-sulfonic acid) (ABTS^•+) [60]. […] Prior to the assay, the ABTS^•+ solution was diluted to get an absorbance of 0.70 ± 0.02 at 700 nm with ethanol. Trolox was used as an antioxidant standard. All test and standard compounds were dissolved in ethanol. Fifty microliters of each test compound was added to 100 µL of diluted ABTS^•+ solution to obtain final concentrations from 10 to 100 µM. […] Experiments were performed in independent triplicates.
For series [3], the system named is SH-SY5Y cells. Description: Neuroprotection against Aβ1-42-induced cell death in SH-SY5Y cells. It is filed as cell-based, Human. Particulars: 10 µM pre-treatment 24 h, then 25 µM Aβ1-42 for 24 h. The protocol: (§1) To examine the neuroprotective effects of acridones against H2O2, SH-SY5Y cells were pre-treated with 10 µM citrusinine II and glycosparvarine for 24 h before exposure to 250 µM H2O2 for 2 h. […] The cytotoxic effects of H2O2 were attenuated by pre-treating cells with citrusinine II and glycosparvarine (Figure 8). For evaluation of the neuroprotective effects of acridones against Aβ1-42 toxicity, SH-SY5Y cells were pre-treated with 10 µM citrusinine II and glycosparvarine for 24 h, followed by 25 µM Aβ1-42 for 24 h. Cell viability was determined by MTT assay.
(§2) Human neuroblastoma cell line SH-SY5Y cells were cultured in Dulbecco’s modified Eagle medium (DMEM)/Ham’s F-12 medium supplemented with 10% fetal bovine serum (FBS), 100 U/mL penicillin and 100 µg/mL streptomycin. Cells were routinely cultured in 75 cm^2 cell culture flasks at 37 °C in 5% CO2. After that, cells were seeded at a density 5 × 10^5 cells/mL in 96-well plates and incubated for an additional 48 h before evaluation.
For neuroprotection against Aβ1–42 toxicity, the Aβ1–42 preparation was modified from Thiratmatrakul et al.. Briefly, lyophilized Aβ1–42 was reconstituted in sterile water and kept at –80 °C until use. […] Twenty-four hours later, cell viability was determined by the MTT colorimetric method. […]

Series [4] deals with SH-SY5Y cells. Description: Neuroprotection against H2O2-induced cell death in SH-SY5Y cells. Particulars: 10 µM pre-treatment 24 h, then 250 µM H2O2 for 2 h. It is filed as cell-based, Human. How it is done: as §1, §2
For evaluation of the neuroprotective effect against H2O2 induced cell damage, cells were pretreated with test compounds or a reference standard at the concentration of 10 μM for 24 h. After treatment, the medium was removed, and cells were washed with phosphate buffer saline to remove unabsorbed test compounds. […] The cell viability was determined by MTT assay.

Series [5] deals with SH-SY5Y neuroblastoma cells. Description: Cytotoxicity by MTT assay in SH-SY5Y cells. The format is cell-based. Particulars: 0.1–10 µM, 24 h incubation. The protocol: […]. […] […]. Thus, the acridones were investigated for neuroprotective effects against H2O2 and Aβ1-42 induced toxicity in human SH-SY5Y neuroblastoma cells at the non-toxic concentration of 10 µM.
as §2
For the investigation of the toxicity effect of test compounds, cells were treated with test compounds at final concentrations of 0.1, 1, 10, 100 μM for 24 h. […] Then, culture media was replaced with a solution of MTT (0.5 mg/mL) at 37 °C for 2 h to determine survival of cells. Live cells containing formazan crystals were solubilized in 100 µL of DMSO. The absorption was measured by UV spectrometer ([…] Accureader M965) at 570 nm. The percentages of cell viability were calculated in relation to untreated cells.
A general note: Tetrazolium dyes change colour on reduction, which living cells bring about.

Each structure is given as a SMILES string.

T1 sequence (O42275 24-633): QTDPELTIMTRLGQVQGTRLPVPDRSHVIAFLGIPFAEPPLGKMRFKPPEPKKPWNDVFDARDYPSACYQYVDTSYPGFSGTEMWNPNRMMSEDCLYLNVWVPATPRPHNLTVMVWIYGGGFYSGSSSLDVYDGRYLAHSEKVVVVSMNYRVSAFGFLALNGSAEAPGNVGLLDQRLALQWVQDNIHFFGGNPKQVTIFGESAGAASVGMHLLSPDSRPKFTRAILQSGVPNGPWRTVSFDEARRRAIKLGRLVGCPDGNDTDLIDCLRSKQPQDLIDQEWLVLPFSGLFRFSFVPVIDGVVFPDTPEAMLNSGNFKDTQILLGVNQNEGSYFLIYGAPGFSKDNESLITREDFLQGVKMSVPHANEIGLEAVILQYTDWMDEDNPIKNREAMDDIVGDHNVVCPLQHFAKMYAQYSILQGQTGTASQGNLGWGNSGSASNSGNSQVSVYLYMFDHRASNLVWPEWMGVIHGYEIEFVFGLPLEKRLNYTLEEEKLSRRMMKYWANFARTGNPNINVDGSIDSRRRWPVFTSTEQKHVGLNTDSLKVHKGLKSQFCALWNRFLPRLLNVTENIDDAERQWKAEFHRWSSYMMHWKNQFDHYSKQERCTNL

Broadly, the IC50 is the concentration at which inhibition is half-maximal. Regarding `CC(C)=CCc1c2c(c3c(c1O)c(=O)c1cccc(O)c1n3C)C=CC(C)(C)O2` [N-methylatalaphyllinine], the IC50 in series [1] is 54 ± 2.03 µM; against Aβ1-42, 6.14 ± 3.85 µM; in series [2], 57.5 ± 3.52 µM.

As for `Cc1c(C)c2c(c(C)c1O)CCC(C)(C(=O)O)O2` (stereo not drawn) [Trolox, reference compound], in series [2], the 50% inhibitory concentration (IC50) is 58.9 ± 2.38 µM.

Turning to `CC(C)=CCc1c(O)c(CC=C(C)C)c2[nH]c3c(O)cccc3c(=O)c2c1O` [Atalaphylline, atalaphylline], the IC50 in series [1] amounted to 58.3 ± 2.99 µM; against Aβ1-42, 6.58 ± 1.3 µM; in series [2] it was 46.2 ± 2.31 µM.

Consider `COc1cc2[nH]c3c(O)cccc3c(=O)c2c(O)c1CC=C(C)C` [Buxifoliadine C, buxifoliadine C], for which the concentration for half-maximal inhibition (IC50) in series [1] was determined as 50.8 ± 3.74 µM; against Aβ1-42, 8.81 ± 3.62 µM; in series [2] it was 21.8 ± 2.71 µM.

With `CC(C)=CCc1c2c(c3[nH]c4c(O)cccc4c(=O)c3c1O)C=CC(C)(C)O2` [Atalaphyllinine, atalaphyllinine], the concentration for half-maximal inhibition (IC50) is 60.8 ± 4.62 µM in series [1], 4.79 ± 0.67 µM on Aβ1-42 and 53 ± 1.83 µM in series [2].

Turning to `COc1c(O)cc(O)c2c(=O)c3cccc(O)c3n(C)c12` [Citrusinine II, citrusinine II], the “Neuroprotective effect against Aβ1-42 toxicity (MTT)” value in the series with SH-SY5Y cells [3] is recorded as “significantly protected”. The IC50 was found to be 42.6 ± 4.81 µM in series [1], 6.17 ± 2.29 µM at Aβ1-42 and 20 ± 3.89 µM in series [2]. The “Neuroprotective effect against H2O2-induced loss of cell viability (MTT)” value in the series on SH-SY5Y cells [4] is “attenuated”. The “Effect on viability of SH-SY5Y cells (MTT)” value in series [5] was “no effect on viability”.

Regarding `CC(C)=CCc1c(O)c(CC=C(C)C)c2c(c1O)c(=O)c1cccc(O)c1n2C` [N-methylatalaphylline], the IC50 in series [1] was determined as 49.1 ± 2.75 µM; at Aβ1-42 it was 7.32 ± 0.09 µM; in series [2], 50.7 ± 1.02 µM.

For the compound `COc1c(O)c(OC)c2c(c1O)c(=O)c1cccc(O)c1n2C` [Citruscridone, citruscridone], the IC50 in series [1] is 47 ± 2.4 µM; on Aβ1-42, 8.61 ± 0.75 µM; in series [2] it was 31.7 ± 0.56 µM.

As to `COc1c(O)cc2c(c1O)c(=O)c1cccc(O)c1n2C` [Glycosparvarine, glycosparvarine], the values for the 50% inhibitory concentration (IC50) (in series [1]; at Aβ1-42; in series [2]) were 18.6 ± 2.77 µM, 6.58 ± 2.03 µM and 22.9 ± 2.24 µM, respectively. Besides, the “Neuroprotective effect against H2O2-induced loss of cell viability (MTT)” value with SH-SY5Y cells [4] is “attenuated”. Further, the “Effect on viability of SH-SY5Y cells (MTT)” value in series [5] is recorded as “no effect on viability”.

For `CC(C)=CCc1c2c(c(O)c3c(=O)c4cccc(O)c4n(C)c13)C=CC(C)(C)O2` [N-methylcycloatalaphylline A], the half-inhibitory concentration (IC50) in series [1] turned out to be 66.6 ± 2.51 µM; at Aβ1-42, 5.84 ± 0.99 µM; in series [2] it was 79.6 ± 3.26 µM.

Take `COc1cc(O)c2c(=O)c3cccc(O)c3n(C)c2c1OC` [Citrusinine I, citrusinine I]: the half-maximal inhibitory concentration (IC50) in series [1] amounted to 35.4 ± 1.61 µM; against Aβ1-42, 7.05 ± 1.45 µM; in series [2] it was 33.77 ± 0.29 µM.

For the origin of these results see PMC8470973, “Multi-Target Actions of Acridones from Atalantia monophylla towards Alzheimer’s Pathogenesis and Their Pharmacokinetic Properties” (Pharmaceuticals, 2021).
